Results reported in patent US20080249123A1, “WORTMANNIN-RAPAMYCIN CONJUGATE AND USES THEREOF” (Wyeth, priority 2007, published 2008).
pIC50: −log10 of the molar value.

Legend:
LNCap = assay: In vitro cell culture growth assay (MTS), LNCap; type: cell-based, Human; conditions: prostate line, 3 days after drug treatment
Procedure: (§1) Human tumor cell lines (Table 3) include prostate lines LNCap and PC3MM2, breast lines MDA468, MCF7, renal line HTB44 (A498), colon line HCT116, and ovarian line OVCAR3. Cells were plated in 96-well culture plates.
(§2) One day following plating, the following conjugates (inhibitors) were added to cells: • Compound A 42,17′-linked wortmannin-adipate-rapamycin conjugate, diethylamine adduct • Compound B 42,17′-linked wortmannin-adipate-rapamycin conjugate. • Compound C 42,17′-linked wortmannin-succinate-rapamycin conjugate, N,N,N′-trimethyl 1,3-propanediamine adduct • Compound D 42,17′-linked wortmannin-adipate-rapamycin conjugate, diallylamine adduct • Compound E 42,17′-linked wortmannin-adipate-rapamycin conjugate, N,N,N′-trimethyl 1,3-propanediamine adduct • Compound F 42,17′-linked wortmannin-suberate-rapamycin conjugate, N,N,N′-trimethyl 1,3-propanediamine adduct.
(§3) Three days after drug treatment, viable cell densities were determined by metabolic conversion (by viable cells) of the MTS dye (3-(4,5-dimethylthiazol-2-yl)-5-(3 carboxymethoxyphenyl)-2-(4-sulfophenyl)-2H-tetrazolium, inner salt), a well established cell proliferation assay. The assays were performed using an assay kit purchased from Promega Corp. (Madison, Wis.) following the protocol supplied with the kit. The MTS assay results were read in a 96-well plate reader by measuring absorbance at 490 nm. The effect of each treatment was calculated as percent of control growth relative to the vehicle-treated cells grown in the same culture plate. The drug concentration that conferred 50% inhibition of growth was determined as IC50 (μg/mL). See, Table 3.

PC3MM2 = assay: In vitro cell culture growth assay (MTS), PC3MM2; type: cell-based, Human; conditions: prostate line, 3 days after drug treatment
Procedure: as §1, §2, §3

MCF7 = assay: In vitro cell culture growth assay (MTS), MCF7; type: cell-based, Human; conditions: breast line, 3 days after drug treatment
Procedure: as §1, §2, §3

MDA468 = assay: In vitro cell culture growth assay (MTS), MDA468; type: cell-based, Human; conditions: breast line, 3 days after drug treatment
Procedure: as §1, §2, §3

OVCAR3 = assay: In vitro cell culture growth assay (MTS), OVCAR3; type: cell-based, Human; conditions: ovarian line, 3 days after drug treatment
Procedure: as §1, §2, §3

HTB44 (A498) = assay: In vitro cell culture growth assay (MTS), HTB44 (A498); type: cell-based, Human; conditions: renal line, 3 days after drug treatment
Procedure: as §1, §2, §3

HCT116 = assay: In vitro cell culture growth assay (MTS), HCT116; type: cell-based, Human; conditions: colon line, 3 days after drug treatment
Procedure: as §1, §2, §3

U87MG Glioma Xenografts = assay: Xenograft tumor efficacy study, U87MG glioma in nude mice; type: in vivo; conditions: for Tumor Volume mean, Day 14 / S/T (D14), Survival over total in group / t/c (Treated over control) tumor volume, Day 14: Day 14
Procedure: Female nude mice at 10 weeks of age were inoculated subcutaneously on the flank with 200 μL U87MG (human gliobastoma) tumor cell suspension. U87MG cells were suspended in full growth media and were implanted at 10 million cells per mouse. Mice were staged when tumors reached approximately 200 mm^3 in sizes. Tumor bearing mice at staging (day 0) were randomized into treatment groups (n=10). […]
The growth of tumors was monitored twice a week for the duration of the experiment. Tumor size was measured using sliding vernier calipers, and the tumor mass was calculated using the formula (length×Width^2)/2.
The experimental methods for drug preparation, dosing route, regimen, etc (listed in the Table 4) were similar to the experiments presented in the Figures. The data in Table 4 and the Figures were derived from multiple and completely different experiments. Within Table 4, the data contained separate experiments.

PI3K = conditions: cited from earlier work
C3H mammary model = conditions: cited from earlier work

Molecule | IC50 inhibition of tumor cell growth, LNCap (LNCap) [mg/L] | IC50 inhibition of tumor cell growth, PC2MM2 (PC3MM2) [mg/L] | IC50 inhibition of tumor cell growth, MCF7 (MCF7) [mg/L] | IC50 inhibition of tumor cell growth, MDA468 (MDA468) [mg/L] | IC50 inhibition of tumor cell growth, OVCAR3 (OVCAR3) [mg/L] | IC50 inhibition of tumor cell growth, HTB44 (HTB44 (A498)) [mg/L] | IC50 inhibition of tumor cell growth, HCT116 (HCT116) [mg/L] | Tumor Volume mean, Day 0 (U87MG Glioma Xenografts; 3 mg/kg IV on day 0 and day 7) [mm^3] | Tumor Volume mean, Day 3 (U87MG Glioma Xenografts; 3 mg/kg IV on day 0 and day 7) [mm^3] | Tumor Volume mean, Day 7 (U87MG Glioma Xenografts; 3 mg/kg IV on day 0 and day 7) [mm^3] | Tumor Volume mean, Day 10 (U87MG Glioma Xenografts; 3 mg/kg IV on day 0 and day 7) [mm^3] | Tumor Volume mean, Day 14 (U87MG Glioma Xenografts; 3 mg/kg IV on day 0 and day 7) [mm^3] | t/c (Treated over control) tumor volume, Day 0 (U87MG Glioma Xenografts; 3 mg/kg) | t/c (Treated over control) tumor volume, Day 3 (U87MG Glioma Xenografts; 3 mg/kg) | t/c (Treated over control) tumor volume, Day 7 (U87MG Glioma Xenografts; 3 mg/kg) | t/c (Treated over control) tumor volume, Day 10 (U87MG Glioma Xenografts; 3 mg/kg) | S/T (D14), Survival over total in group (U87MG Glioma Xenografts; 3 mg/kg) | t/c (Treated over control) tumor volume, Day 14 (U87MG Glioma Xenografts; 3 mg/kg) | Tumor Volume mean, Day 0 (U87MG Glioma Xenografts; 15 mg/kg IV on day 0 and day 7) [mm^3] | Tumor Volume mean, Day 3 (U87MG Glioma Xenografts; 15 mg/kg IV on day 0 and day 7) [mm^3] | further results
42,17′-linked wortmannin-adipate-rapamycin conjugate [Compound B] | 0.80 | 1.10 | 1.00 | 2.05 | 4.70 | 3.50 | 16.50 | – | – | – | – | – | – | – | – | – | – | – | – | – | –
42,17′-linked wortmannin-adipate-rapamycin conjugate, N,N,N′-trimethyl 1,3-propanediamine adduct [Compound E] | 0.25 | 1.95 | 1.00 | 1.35 | 3.15 | 5.00 | 7.50 | 182.7 | 214.7 | 340.2 | 471.6 | 595.9 | 0.99 | 0.78 | 0.68 | 0.45 | 10/10 | 0.27 | 187.5 | 168.0 | Tumor Volume mean, Day 7 (U87MG Glioma Xenografts; 15 mg/kg IV on day 0 and day 7): 181.6 mm^3; Tumor Volume mean, Day 10 (U87MG Glioma Xenografts; 15 mg/kg IV on day 0 and day 7): 165.8 mm^3; Tumor Volume mean, Day 14 (U87MG Glioma Xenografts; 15 mg/kg IV on day 0 and day 7): 162.8 mm^3; t/c (Treated over control) tumor volume, Day 0 (U87MG Glioma Xenografts; 15 mg/kg): 1.01; t/c (Treated over control) tumor volume, Day 3 (U87MG Glioma Xenografts; 15 mg/kg): 0.61; t/c (Treated over control) tumor volume, Day 7 (U87MG Glioma Xenografts; 15 mg/kg): 0.36; t/c (Treated over control) tumor volume, Day 10 (U87MG Glioma Xenografts; 15 mg/kg): 0.16; S/T (D14), Survival over total in group (U87MG Glioma Xenografts; 15 mg/kg): 10/10; t/c (Treated over control) tumor volume, Day 14 (U87MG Glioma Xenografts; 15 mg/kg): 0.07; efficacy in multi-cycle treatment (FIG. 2) (U87MG Glioma Xenografts; multi-cycle treatment): sustained efficacy
42,17′-linked wortmannin-adipate-rapamycin conjugate, diallylamine adduct [Compound D] | 0.21 | 0.43 | 0.66 | 1.15 | 1.75 | 4.10 | 5.00 | 185.1 | 244.5 | 435.4 | 636.4 | 1050.1 | 1.00 | 0.89 | 0.87 | 0.60 | 10/10 | 0.47 | 181.5 | 186.0 | Tumor Volume mean, Day 10 (U87MG Glioma Xenografts; 15 mg/kg IV on day 0 and day 7): 242.5 mm^3; Tumor Volume mean, Day 14 (U87MG Glioma Xenografts; 15 mg/kg IV on day 0 and day 7): 254.6 mm^3; t/c (Treated over control) tumor volume, Day 0 (U87MG Glioma Xenografts; 15 mg/kg): 0.98; t/c (Treated over control) tumor volume, Day 3 (U87MG Glioma Xenografts; 15 mg/kg): 0.68; t/c (Treated over control) tumor volume, Day 10 (U87MG Glioma Xenografts; 15 mg/kg): 0.23; S/T (D14), Survival over total in group (U87MG Glioma Xenografts; 15 mg/kg): 10/10; t/c (Treated over control) tumor volume, Day 14 (U87MG Glioma Xenografts; 15 mg/kg): 0.11
42,17′-linked wortmannin-adipate-rapamycin conjugate, diethylamine adduct [Compound A] | 0.04 | 2.55 | 0.29 | 0.38 | 8.50 | 0.57 | >30 | – | – | – | – | – | – | – | – | – | – | – | – | – | –
42,17′-linked wortmannin-succinate-rapamycin conjugate, N,N,N′-trimethyl 1,3-propanediamine adduct [Compound C] | 0.20 | 0.50 | 0.38 | 1.20 | 1.13 | 2.00 | 4.20 | 193.0 | 209.6 | 437.2 | 691.8 | 1091.7 | 1.04 | 0.76 | 0.88 | 0.66 | 10/10 | 0.49 | 183.6 | 193.5 | Tumor Volume mean, Day 7 (U87MG Glioma Xenografts; 15 mg/kg IV on day 0 and day 7): 246.7 mm^3; Tumor Volume mean, Day 10 (U87MG Glioma Xenografts; 15 mg/kg IV on day 0 and day 7): 294.2 mm^3; t/c (Treated over control) tumor volume, Day 0 (U87MG Glioma Xenografts; 15 mg/kg): 0.99; t/c (Treated over control) tumor volume, Day 3 (U87MG Glioma Xenografts; 15 mg/kg): 0.70; t/c (Treated over control) tumor volume, Day 7 (U87MG Glioma Xenografts; 15 mg/kg): 0.49; t/c (Treated over control) tumor volume, Day 10 (U87MG Glioma Xenografts; 15 mg/kg): 0.28; S/T (D14), Survival over total in group (U87MG Glioma Xenografts; 15 mg/kg): 10/10; t/c (Treated over control) tumor volume, Day 14 (U87MG Glioma Xenografts; 15 mg/kg): 0.11; antitumor activity (FIG. 2) (U87MG Glioma Xenografts; i.v. 1× weekly for 2 rounds at 1.5 mg/kg): improved inhibition of tumor cell growth; antitumor activity (FIG. 2) (U87MG Glioma Xenografts; i.v. 1× weekly for 2 rounds at 4.5 mg/kg): some improvement; antitumor activity (FIG. 2) (U87MG Glioma Xenografts; i.v. 1× weekly for 8 rounds at 15 mg/kg): Significant improvement
COCC1OC(=O)c2coc3c2C1(C)C1=C(C3=O)C2CCC(O)C2(C)CC1OC(C)=O (stereo not drawn) [17β-Hydroxywortmannin] | – | – | – | – | – | – | – | – | – | – | – | – | – | – | – | – | – | – | – | – | increase in activity relative to wortmannin (PI3K; PI3K): 10 fold; pIC50 (PI3K): 9.30; anti-tumor activity in the C3H mammary model (C3H mammary model; dose of 0.5 mg/kg): no inhibition; toxicity in the C3H mammary model (C3H mammary model; dose of 1.0 mg/kg): toxicity
